Source: ChEMBL document CHEMBL1671717, “In vitro potentiation of carbapenems with ME1071, a novel metallo-beta-lactamase inhibitor, against metallo-beta-lactamase- producing Pseudomonas aeruginosa clinical isolates” (Antimicrob Agents Chemother, 2010)

Experiments:
Beta-lactamase = Beta-lactamase (Pseudomonas aeruginosa, UniProt Q79MP6)
Description: Inhibition of Pseudomonas aeruginosa beta-lactamase IMP-1 assessed as hydrolysis of nitrocefin by UV spectrophotometric analysis

Beta-lactamase VIM-2 = Beta-lactamase VIM-2 (Pseudomonas aeruginosa, UniProt Q9K2N0)
Description: Inhibition of Pseudomonas aeruginosa beta-lactamase VIM-2 assessed as hydrolysis of nitrocefin by UV spectrophotometric analysis

Sequence of Beta-lactamase (Q79MP6 whole entry): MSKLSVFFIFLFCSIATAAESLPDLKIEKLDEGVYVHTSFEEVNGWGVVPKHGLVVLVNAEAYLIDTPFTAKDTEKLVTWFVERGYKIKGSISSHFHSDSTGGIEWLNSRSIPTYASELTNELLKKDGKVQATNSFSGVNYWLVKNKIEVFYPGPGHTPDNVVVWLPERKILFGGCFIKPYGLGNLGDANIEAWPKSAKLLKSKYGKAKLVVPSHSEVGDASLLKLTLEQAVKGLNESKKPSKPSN

Row | SMILES | Ki (Beta-lactamase) [µM] | Ki (Beta-lactamase VIM-2) [µM]
1 | O=C(O)CS [THIOGLYCOLIC ACID] | 0.18 | 
2 | COC1OC(C)=Cc2oc3cc(O)c(O)c(C(=O)O)c3c(=O)c21 (stereo not given) | 0.18 | 
3 | C[C@@H](O)[C@H]1C(=O)N2C(C(=O)O)=C(Sc3cc4ccccc4s3)[C@H](C)[C@H]12 | 0.18 | 
4 | CC/C(C(=O)O)=C(\CC)C(=O)O |  | 120
5 | O=C(O)CCS [MERCAPTOPROPIONIC ACID] | 0.18 | 
